Measurements taken from ChEMBL document CHEMBL1909496, “Malabaricone C from Myristica cinnamomea exhibits anti-quorum sensing activity” (J Nat Prod, 2011).
The source made the active and inactive calls. The calls are words filed in the database; no cut-off is given here.

Experiments:
[1] = test system: Pseudomonas aeruginosa PAO1; assay: Inhibition of Pseudomonas aeruginosa PAO1 quorum sensing assessed as reduction of biofilm formation at 2 mg/ml after 18 hrs using crystal violet staining
[2] = test system: Pseudomonas aeruginosa PAO1; assay: Inhibition of Pseudomonas aeruginosa PAO1 quorum sensing assessed as reduction of biofilm formation at 3 mg/ml after 18 hrs using crystal violet staining
[3] = test system: Pseudomonas aeruginosa PAO1; assay: Inhibition of Pseudomonas aeruginosa PAO1 quorum sensing assessed as reduction of biofilm formation at 1 mg/ml after 18 hrs using crystal violet staining
[4] = test system: Pseudomonas aeruginosa PAO1; assay: Inhibition of Pseudomonas aeruginosa PAO1 quorum sensing assessed as inhibition of pycocyanin production at >/= 0.1 mg/ml after overnight incubation
[5] = test system: Chromobacterium violaceum; assay: Inhibition of Chromobacterium violaceum CV026 quorum sensing assessed as N-3-oxohexanoyl-homoserine lactone-induced violacein production at 3 mg/ml relative to control
Pseudomonas aeruginosa = assay: Toxicity in Pseudomonas aeruginosa PAO1 quorum sensing assessed as cell viability; type: organism-based
[6] = test system: Pseudomonas aeruginosa PAO1; assay: Inhibition of LuxR-dependent quorum sensing in Pseudomonas aeruginosa PAO1 assessed as inhibition of autoinducer production

inhibition [1]	inhibition [2]	inhibition [3]	inhibition [4]	inhibition [5]	inhibition [6]	Structure (SMILES)	Activity (Pseudomonas aeruginosa)
Active	Active	Active	–	–	–	Oc1cc(O)c2c(c1)O[C@H](c1ccc(O)c(O)c1)[C@@H](O)C2	–
63%	69.4%	44.9%	Active	Active	inactive	O=C(CCCCCCCCc1ccc(O)c(O)c1)c1c(O)cccc1O [MALABARICONE C]	Non-toxic
